Data: the NIST ThermoML archive (doi:10.1021/acs.jced.6b00192)
Numbers after ± are expanded uncertainties.

Details: Liquid, Vibrating tube method

CCCCOCCO [2-butoxyethan-1-ol]
mass density [kg/m3]
Details | 283.15 K | 293.15 K | 303.15 K | 313.15 K | 323.15 K | 333.15 K | 343.15 K | 353.15 K | 363.15 K
100 kPa | 907.9 ± 0.9 | 900.5 ± 0.9 | 891.8 ± 0.9 | 883.5 ± 0.9 | 874 ± 0.9 | 865.6 ± 0.9 | 856.5 ± 0.9 | 847.5 ± 0.9 | 838.2 ± 0.9
1000 kPa | 908.3 ± 0.9 | 900.6 ± 0.9 | 892.1 ± 0.9 | 884 ± 0.9 | 875 ± 0.9 | 866.1 ± 0.9 | 857.4 ± 0.9 | 848.4 ± 0.9 | 839.4 ± 0.9
3000 kPa | 909.9 ± 0.9 | 902.2 ± 0.9 | 893.9 ± 0.9 | 885.6 ± 0.9 | 876.5 ± 0.9 | 868 ± 0.9 | 859.3 ± 0.9 | 850.5 ± 0.9 | 841.4 ± 0.9
5000 kPa | 911 ± 0.9 | 903.2 ± 0.9 | 895.4 ± 0.9 | 887.1 ± 0.9 | 878.1 ± 0.9 | 869.5 ± 0.9 | 861.1 ± 0.9 | 852.2 ± 0.9 | 843.4 ± 0.9
10000 kPa | 914.2 ± 0.9 | 906.8 ± 0.9 | 898.9 ± 0.9 | 890.7 ± 0.9 | 881.9 ± 0.9 | 873.5 ± 0.9 | 865.1 ± 0.9 | 856.7 ± 0.9 | 847.9 ± 0.9
15000 kPa | 917.1 ± 1 | 910 ± 0.9 | 902 ± 0.9 | 894.1 ± 0.9 | 885.5 ± 0.9 | 877.3 ± 0.9 | 869.1 ± 0.9 | 860.9 ± 0.9 | 852.6 ± 0.9
20000 kPa | 920 ± 1 | 912.9 ± 1 | 905.5 ± 0.9 | 897.3 ± 0.9 | 889.1 ± 0.9 | 880.9 ± 0.9 | 873.2 ± 0.9 | 864.8 ± 0.9 | 856.4 ± 0.9
25000 kPa | 922.8 ± 1 | 915.9 ± 1 | 908.7 ± 1 | 900.7 ± 1 | 892.1 ± 0.9 | 884.4 ± 0.9 | 876.5 ± 0.9 | 868.7 ± 0.9 | 860.4 ± 0.9
30000 kPa | 925.6 ± 1 | 918.8 ± 1 | 911.8 ± 1 | 903.6 ± 1 | 895.4 ± 1 | 887.6 ± 0.9 | 880.1 ± 0.9 | 872.3 ± 0.9 | 864.4 ± 0.9
35000 kPa | 928.4 ± 1 | 921.4 ± 1 | 914.5 ± 1 | 906.7 ± 1 | 898.5 ± 1 | 890.8 ± 1 | 883.5 ± 1 | 875.9 ± 1 | 868.1 ± 0.9
40000 kPa | 930.9 ± 1 | 924 ± 1 | 916.7 ± 1 | 909.4 ± 1 | 901.6 ± 1 | 894 ± 1 | 886.7 ± 1 | 879.2 ± 1 | 871.8 ± 1
50000 kPa | 935.7 ± 1 | 929.5 ± 1 | 921.8 ± 1 | 915.1 ± 1 | 907.3 ± 1 | 900.1 ± 1 | 893 ± 1 | 885.6 ± 1 | 878.4 ± 1
60000 kPa | 940.5 ± 1 | 933.9 ± 1 | 927.1 ± 1 | 920.1 ± 1 | 912.9 ± 1 | 905.7 ± 1 | 898.6 ± 1 | 891.8 ± 1 | 884.8 ± 1

CCCCOCCOCCOCCCC [5,8,11-trioxapentadecane]
mass density [kg/m3]
Details | 283.15 K | 293.15 K | 303.15 K | 313.15 K | 323.15 K | 333.15 K | 343.15 K | 353.15 K | 363.15 K
100 kPa | 891.3 ± 0.9 | 882.9 ± 0.9 | 874.5 ± 0.9 | 866.1 ± 0.9 | 857.2 ± 0.9 | 849.1 ± 0.9 | 840.4 ± 0.9 | 832.4 ± 0.9 | 823.4 ± 0.9
1000 kPa | 891.8 ± 0.9 | 883.1 ± 0.9 | 875.1 ± 0.9 | 866.41 ± 0.89 | 858.2 ± 0.9 | 850 ± 0.9 | 841.7 ± 0.9 | 833 ± 0.9 | 824.8 ± 0.9
3000 kPa | 893.2 ± 0.9 | 884.8 ± 0.9 | 876.6 ± 0.9 | 868.1 ± 0.9 | 859.8 ± 0.9 | 851.6 ± 0.9 | 843.5 ± 0.9 | 835.1 ± 0.9 | 827.1 ± 0.9
5000 kPa | 894.3 ± 0.9 | 885.9 ± 0.9 | 878.2 ± 0.9 | 869.8 ± 0.9 | 861.5 ± 0.9 | 853.3 ± 0.9 | 845.5 ± 0.9 | 836.7 ± 0.9 | 828.7 ± 0.9
10000 kPa | 897.7 ± 0.9 | 889.6 ± 0.9 | 881.8 ± 0.9 | 873.5 ± 0.9 | 865.4 ± 0.9 | 857.5 ± 0.9 | 849.8 ± 0.9 | 841.4 ± 0.9 | 833.5 ± 0.9
15000 kPa | 900.9 ± 0.9 | 892.9 ± 0.9 | 885.2 ± 0.9 | 877.2 ± 0.9 | 869.2 ± 0.9 | 861.4 ± 0.9 | 853.7 ± 0.9 | 846 ± 0.9 | 838.4 ± 0.9
20000 kPa | 904.3 ± 0.9 | 896.1 ± 0.9 | 888.42 ± 0.93 | 880.7 ± 0.9 | 873.1 ± 0.9 | 865.4 ± 0.9 | 857.9 ± 0.9 | 850.3 ± 0.9 | 842.8 ± 0.9
25000 kPa | 906.9 ± 1 | 899.3 ± 0.9 | 891.8 ± 0.9 | 884.1 ± 0.9 | 876.5 ± 0.9 | 869 ± 0.9 | 861.6 ± 0.9 | 854 ± 0.9 | 846.8 ± 0.9
30000 kPa | 909.9 ± 1 | 902.3 ± 1 | 894.9 ± 1 | 887.1 ± 0.9 | 879.8 ± 0.9 | 872.6 ± 0.9 | 865.3 ± 0.9 | 857.9 ± 0.9 | 850.9 ± 0.9
35000 kPa | 912.8 ± 1 | 905.1 ± 1 | 897.9 ± 1 | 890.5 ± 1 | 883.1 ± 1 | 875.9 ± 1 | 868.9 ± 0.9 | 861.6 ± 0.9 | 854.9 ± 0.9
40000 kPa | 915.3 ± 1 | 907.9 ± 1 | 900.8 ± 1 | 893.3 ± 1 | 886.3 ± 1 | 879.5 ± 1 | 872.3 ± 1 | 865.1 ± 1 | 858.5 ± 1
50000 kPa | 920.5 ± 1 | 913.6 ± 1 | 906.4 ± 1 | 899.4 ± 1 | 892.4 ± 1 | 885.5 ± 1 | 878.9 ± 1 | 871.5 ± 1 | 865.6 ± 1
60000 kPa | 925.4 ± 1 | 918.2 ± 1 | 911.8 ± 1 | 904.9 ± 1 | 898.8 ± 1 | 891.6 ± 1 | 884.7 ± 1 | 878.2 ± 1 | 872 ± 1

CCCCOCCOCCO [3,6-dioxa-1-decanol]
mass density [kg/m3]
Details | 283.15 K | 293.15 K | 303.15 K | 313.15 K | 323.15 K | 333.15 K | 343.15 K | 353.15 K | 363.15 K
100 kPa | 960.4 ± 1 | 952.4 ± 1 | 943.8 ± 0.9 | 935.5 ± 0.9 | 927 ± 0.9 | 917.8 ± 0.9 | 909.1 ± 0.9 | 901.1 ± 0.9 | 892.6 ± 0.9
1000 kPa | 961.3 ± 1 | 952.9 ± 1 | 944.2 ± 1 | 935.9 ± 0.9 | 927.3 ± 0.9 | 918.7 ± 0.9 | 910.5 ± 0.9 | 902.1 ± 0.9 | 893.2 ± 0.9
3000 kPa | 962.6 ± 1 | 954.3 ± 1 | 946 ± 1 | 937.2 ± 0.9 | 928.8 ± 0.9 | 920.7 ± 0.9 | 912.35 ± 0.92 | 903.9 ± 0.9 | 894.9 ± 0.9
5000 kPa | 963.4 ± 1 | 955.2 ± 1 | 947 ± 1 | 938.8 ± 0.9 | 930.3 ± 0.9 | 922.2 ± 0.9 | 913.6 ± 0.9 | 905.3 ± 0.9 | 896.7 ± 0.9
10000 kPa | 966.5 ± 1 | 958.4 ± 1 | 950.3 ± 1 | 942 ± 1 | 933.8 ± 0.9 | 925.7 ± 0.9 | 917.6 ± 0.9 | 909.3 ± 0.9 | 900.4 ± 0.9
15000 kPa | 969.4 ± 1 | 961.2 ± 1 | 953 ± 1 | 945.2 ± 1 | 937.2 ± 0.9 | 929.2 ± 0.9 | 921.3 ± 0.9 | 913.1 ± 0.9 | 904.8 ± 0.9
20000 kPa | 971.9 ± 1 | 964 ± 1 | 956 ± 1 | 948.4 ± 1 | 940.4 ± 1 | 932.5 ± 0.9 | 924.7 ± 0.9 | 916.8 ± 0.9 | 908.5 ± 0.9
25000 kPa | 974.5 ± 1 | 966.9 ± 1 | 959.1 ± 1 | 951.2 ± 1 | 943.5 ± 1 | 935.5 ± 0.9 | 928.1 ± 0.9 | 920.3 ± 0.9 | 912.1 ± 0.9
30000 kPa | 977.1 ± 1 | 969.6 ± 1 | 962 ± 1 | 953.8 ± 1 | 946.4 ± 1 | 939 ± 1 | 931.3 ± 0.9 | 923.7 ± 0.9 | 915.7 ± 0.9
35000 kPa | 979.1 ± 1 | 972 ± 1 | 964.7 ± 1 | 956.9 ± 1 | 949.5 ± 1 | 942 ± 1 | 934.4 ± 1 | 927.1 ± 0.9 | 919.2 ± 0.9
40000 kPa | 981.4 ± 1 | 974.4 ± 1 | 967.1 ± 1 | 959.7 ± 1 | 952.5 ± 1 | 945.2 ± 1 | 937.3 ± 1 | 930.3 ± 1 | 922.7 ± 0.9
50000 kPa | 986.9 ± 1 | 979.7 ± 1 | 972.2 ± 1 | 965 ± 1 | 958.2 ± 1 | 950.6 ± 1 | 943.2 ± 1 | 936.3 ± 1 | 929.1 ± 1
60000 kPa | 990.4 ± 1 | 983.9 ± 1 | 977.1 ± 1 | 969.7 ± 1 | 963.4 ± 1 | 956 ± 1 | 948.8 ± 1 | 942.2 ± 1 | 935.2 ± 1
